Experiments:
pediatric ADHD subjects = conditions: compared to a placebo control; cited from earlier work
ADHD = test: open-label Phase Ib clinical trial in adolescent ADHD subjects with CNV in an mGluR network gene; assay type: in vivo, human
Experimental: Previously, an open-label Phase Ib clinical trial was conducted to study the safety, pharmacokinetics, and efficacy of fasoracetam (fasoracetam monohydrate) in adolescent subjects between the ages of 12 and 17 previously diagnosed with ADHD. Each of the study subjects in this clinical trial had one or more CNV in an mGluR network gene.

[1] = prior human studies; cited from earlier work
[2] = system: group I and group II/III mGluRs; conditions: in vitro studies (Hirouchi 2000); cited from earlier work
[3] = system: adenylate cyclase activity; conditions: cited from earlier work
[4] = system: dementia-related cognitive impairment; conditions: cited from earlier work

SMILES	ADHD symptoms (pediatric ADHD subjects)	treatment of ADHD (ADHD; adolescent subjects ages 12 to 17 with one or more CNV in an mGluR network gene)	appetite (ADHD; children tested in the ADHD clinical study)	bioavailability [1]	half-life [1]	stimulation of mGluRs [2]	adenylate cyclase activity through group II and III mGluRs ([3]; by stimulating group II and III mGluRs (Oka 1997))	adenylate cyclase activity through group I mGluRs ([3]; through activation of group I mGluRs (Oka 1997))	safety and tolerability ([4]; Phase I-III trials, dementia-related cognitive impairment)	effects on psychiatric symptoms ([4]; Phase III data, cerebral infarct patients and adult dementia patients with cerebrovascular diseases)	efficacy in dementia ([4]; Phase III trials)
NC(=O)CN1CCCC1=O [piracetam]	increase ADHD symptoms										
O=C1CC[C@H](C(=O)N2CCCCC2)N1 [fasoracetam]		successfully treated	appetite was observed to be improved	79%-97%	5 to 6.5 h	stimulate both group I and group II/III mGluRs	may also inhibit adenylate cyclase activity	may stimulate adenylate cyclase activity	generally safe and well tolerated	beneficial effects	did not show sufficient efficacy
